Measured values reported in PubChem BioAssay (NCI).
Where “and” joins values, the source holds several entries; their conditions need not be identical. Equal entries are not always repeated.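 A five-concentration, 48-hour dose response in 96-well plates underlies each endpoint, interpolated linearly between surrounding concentrations. At the GI50, growth is halved. TGI is the concentration that stops growth completely.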

Key:
Test in all cases: growth of human tumour cells (NCI), 48 h
[1] = tested on: NCI-H460 lung
[2] = tested on: UACC-62 melanoma
[3] = tested on: SF-268 CNS
[4] = tested on: MCF7 breast
[5] = tested on: SF-539 CNS
[6] = tested on: TK-10 renal
[7] = tested on: SNB-19 CNS
[8] = tested on: HS 578T breast
[9] = tested on: DU-145 prostate
[10] = tested on: NCI-H226 lung

For `Nc1ccc(C(=O)Nc2ccccc2N)cc1`, the TGI [1] was over 100 µM, the TGI [2] was 39.7 µM and the TGI [3] was over 100 µM. For the same molecule, the TGI [4] was over 100 µM, the TGI [5] was over 100 µM and the TGI [6] was over 63.1 µM. The TGI [7] was over 100 µM, the TGI [8] was over 100 µM and the TGI [9] was over 100 µM. For the same molecule, the TGI [10] was over 100 µM.

With `COc1ccc(/C=C2/CN(CCC#N)C/C(=C\c3ccc(OC)cc3)C2=O)cc1` the GI50 [1] was 1970 nM, the TGI [1] was 4.75 µM and the GI50 [2] was 1660 nM. For the same molecule, the TGI [2] was 3.81 µM, the GI50 [3] was 3270 nM and the TGI [3] was 36.7 µM. The GI50 [4] was 1720 nM, the TGI [4] was over 100 µM and the GI50 [5] was 2120 nM. For the same molecule, the TGI [5] was 5.42 µM, the GI50 [6] was 3.21 µM and the TGI [6] was 7.91 µM. The GI50 [7] was 4.07 µM, the TGI [7] was over 100 µM and the GI50 [8] was 2980 nM. For the same molecule, the TGI [8] was 64.4 µM, the GI50 [9] was 4.25 µM and the TGI [9] was over 100 µM. For the same molecule, the GI50 [10] was 21300 nM and the TGI [10] was over 100 µM.

`COC(=O)c1ccc2c(C(=Nc3ccc(N(C)C(=O)CN4CCN(C)CC4)cc3)c3ccccc3)c(O)[nH]c2c1` was tested, and the GI50 [1] was 2020 nM and 2240 nM, the TGI [1] was 4 µM and 4.96 µM and the GI50 [2] was 2180 nM and 3090 nM. The TGI [2] was 5.09 µM and 21.4 µM, the GI50 [3] was 1790 nM and 2290 nM and the GI50 [4] was 1550 nM and 4480 nM. For the same molecule, the TGI [4] was 13.6 µM and > 100 µM, the GI50 [5] was 597 nM and 1400 nM and the TGI [5] was 2.26 µM and 5.9 µM. The GI50 [6] was 4.63 µM and 19.2 µM, the TGI [6] was 23.5 µM and > 100 µM and the GI50 [7] was 2.6 µM and 3.55 µM. The TGI [7] was over 100 µM, the GI50 [8] was 546 nM and 648 nM and the GI50 [9] was 3.22 µM and 6.14 µM. The TGI [9] was 14.9 µM and > 100 µM, the GI50 [10] was 2350 nM and 1820 nM and the TGI [10] was 24.5 µM and 59.9 µM.

`CCN1C(=O)N(CC)C2C1NN=c1s/c(=C\c3ccc(OC)cc3)c(=O)n12` (configuration not stated) showed a GI50 [1] of 242 nM, a TGI [1] of over 100 µM and a GI50 [2] of 70.4 nM. The TGI [2] was over 100 µM, the GI50 [3] was 577 nM and the TGI [3] was over 80.1 µM. It also gave a GI50 [4] of 46.5 nM, a TGI [4] of over 100 µM and a GI50 [5] of 103 nM. It also gave a TGI [5] of 0.545 µM, a GI50 [6] of over 33.5 µM and a TGI [6] of over 100 µM. For the same molecule, the GI50 [7] was 0.471 µM, the TGI [7] was over 100 µM and the GI50 [8] was 219 nM. The TGI [8] was over 100 µM, the GI50 [9] was 0.323 µM and the TGI [9] was over 29.8 µM. It also gave a GI50 [10] of 1720 nM.

`Cc1cc2c(cc1Cl)SC(C(=O)c1ccc(Cl)c(Cl)c1)NS2(=O)=O` (configuration not stated) was tested, and the GI50 [1] was 23500 nM, the TGI [1] was 50.7 µM and the GI50 [2] was 22000 nM. It also gave a TGI [2] of 42.9 µM, a GI50 [3] of 33600 nM and a TGI [3] of 88.6 µM. It also gave a GI50 [4] of 21200 nM, a TGI [4] of 47.3 µM and a GI50 [5] of 19800 nM. It also gave a TGI [5] of 42.2 µM, a GI50 [6] of 84.7 µM and a TGI [6] of over 100 µM. For the same molecule, the GI50 [7] was 35 µM, the TGI [7] was over 100 µM and the GI50 [8] was 70000 nM. For the same molecule, the TGI [8] was over 100 µM, the GI50 [9] was 32.8 µM and the TGI [9] was 87.6 µM. It also gave a GI50 [10] of 49900 nM and a TGI [10] of over 100 µM.

With `CCc1ccc([O-])c(C=NCCCN(C)CCCN=Cc2cc(C)ccc2[O-])c1.[Co+3].[N-]=[N+]=[N-]` the GI50 [1] was 50 µg/mL and > 150 µg/mL, the TGI [1] was 50 µg/mL and > 150 µg/mL and the GI50 [2] was 50 µg/mL and 78.2 µg/mL. For the same molecule, the TGI [2] was 50 µg/mL and > 150 µg/mL, the GI50 [3] was 21.9 µg/mL and 53.3 µg/mL and the TGI [3] was 50 µg/mL and > 150 µg/mL. The GI50 [4] was 50 µg/mL and > 150 µg/mL, the TGI [4] was 50 µg/mL and > 150 µg/mL and the GI50 [5] was 50 µg/mL and 22.7 µg/mL. The TGI [5] was 50 µg/mL and 82.3 µg/mL, the GI50 [6] was 29 µg/mL and the TGI [6] was 50 µg/mL. The GI50 [7] was 40.6 µg/mL and 61.6 µg/mL, the TGI [7] was 50 µg/mL and 123 µg/mL and the GI50 [8] was 13.8 µg/mL. The TGI [8] was 50 µg/mL, the GI50 [9] was 11.6 µg/mL and the TGI [9] was 50 µg/mL. For the same molecule, the GI50 [10] was 50 µg/mL and 32.5 µg/mL and the TGI [10] was 50 µg/mL and 88.6 µg/mL.
